Key:
[1] = test system: previously treated advanced HCC; assay: CELESTIAL secondary analysis: target lesion size, serum AFP, time to progression; format: in vivo, human
Procedure: Patients must have received prior sorafenib and were allowed up to 2 lines of prior systemic therapy for HCC. Change in the sum of target lesion diameters (SOD) from baseline was determined every 8 weeks by investigator. Best percentage change in SOD was defined as the maximum reduction in SOD at any postbaseline timepoint. Serum AFP levels were measured centrally at baseline and every 8 weeks on the same schedule as tumor assessments. TTP was defined as the time from randomization to radiological progression or clinical deterioration and was determined retrospectively.

CYP2A6 = CYP2A6 (Homo sapiens, UniProt P11509); assay: In vitro metabolic pathways; format: in vitro ADME
Sequence of CYP2A6 (P11509 whole entry): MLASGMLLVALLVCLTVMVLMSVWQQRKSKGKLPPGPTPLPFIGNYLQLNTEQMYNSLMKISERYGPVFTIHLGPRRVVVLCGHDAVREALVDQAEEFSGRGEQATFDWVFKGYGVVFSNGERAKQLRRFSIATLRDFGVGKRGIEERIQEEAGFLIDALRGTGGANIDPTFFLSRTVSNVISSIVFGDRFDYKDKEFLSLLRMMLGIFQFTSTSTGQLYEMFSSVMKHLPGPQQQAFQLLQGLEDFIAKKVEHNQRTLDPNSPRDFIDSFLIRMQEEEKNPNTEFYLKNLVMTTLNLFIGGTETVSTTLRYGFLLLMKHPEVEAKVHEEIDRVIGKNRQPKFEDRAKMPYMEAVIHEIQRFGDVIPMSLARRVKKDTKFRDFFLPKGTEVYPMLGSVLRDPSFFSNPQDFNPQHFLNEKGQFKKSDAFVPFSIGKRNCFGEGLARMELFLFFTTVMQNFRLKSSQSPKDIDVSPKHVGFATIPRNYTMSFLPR

FLT-3 = FLT-3 (Homo sapiens, UniProt P36888); assay: In vitro biochemical and/or cellular kinase assays
Sequence of FLT-3 (P36888 27-993): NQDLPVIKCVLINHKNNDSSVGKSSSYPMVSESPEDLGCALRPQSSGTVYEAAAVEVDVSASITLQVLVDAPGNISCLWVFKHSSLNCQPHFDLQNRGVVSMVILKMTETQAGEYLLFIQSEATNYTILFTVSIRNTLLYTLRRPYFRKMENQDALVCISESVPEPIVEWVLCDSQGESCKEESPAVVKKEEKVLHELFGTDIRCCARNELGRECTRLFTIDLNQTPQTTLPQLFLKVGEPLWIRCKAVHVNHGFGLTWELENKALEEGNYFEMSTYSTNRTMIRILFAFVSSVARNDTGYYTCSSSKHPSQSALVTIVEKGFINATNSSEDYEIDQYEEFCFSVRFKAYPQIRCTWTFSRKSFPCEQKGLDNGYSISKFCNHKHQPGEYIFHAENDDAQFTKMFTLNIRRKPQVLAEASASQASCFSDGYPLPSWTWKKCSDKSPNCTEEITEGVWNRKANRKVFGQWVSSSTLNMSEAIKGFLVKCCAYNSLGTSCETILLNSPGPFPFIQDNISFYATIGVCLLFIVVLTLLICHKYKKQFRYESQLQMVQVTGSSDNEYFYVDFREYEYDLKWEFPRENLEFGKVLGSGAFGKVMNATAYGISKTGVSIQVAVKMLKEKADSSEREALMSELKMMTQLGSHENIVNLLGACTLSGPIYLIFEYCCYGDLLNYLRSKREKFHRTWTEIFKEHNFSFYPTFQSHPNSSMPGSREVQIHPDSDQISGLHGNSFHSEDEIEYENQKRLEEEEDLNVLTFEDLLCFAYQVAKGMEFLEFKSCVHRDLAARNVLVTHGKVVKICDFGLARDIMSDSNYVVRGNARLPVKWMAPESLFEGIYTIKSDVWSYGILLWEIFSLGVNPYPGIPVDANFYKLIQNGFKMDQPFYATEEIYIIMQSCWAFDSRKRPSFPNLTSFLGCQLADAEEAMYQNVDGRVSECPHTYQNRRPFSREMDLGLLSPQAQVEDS

CYP3A4 [2] = assay: Drug interaction with strong CYP3A4 inducer rifampin; format: in vivo, human; conditions: rifampin 600 mg daily for 31 days, healthy subjects
[3] = Population pharmacokinetic analysis in specific populations; format: in vivo, human; conditions: integrated population pharmacokinetic analysis
Description: The pooled analysis included 391 patients with HCC of whom […] were categorized as having normal liver function, mild, and moderate hepatic impairment, respectively.

[4] = test system: advanced hepatocellular carcinoma; conditions: from study entry; cited from earlier work
CYP2B6 = assay: In vitro CYP induction; format: in vitro ADME
CYP2C9 = CYP2C9 (Homo sapiens, UniProt P11712); assay: In vitro CYP inhibition; format: in vitro ADME
Sequence of CYP2C9 (P11712 whole entry): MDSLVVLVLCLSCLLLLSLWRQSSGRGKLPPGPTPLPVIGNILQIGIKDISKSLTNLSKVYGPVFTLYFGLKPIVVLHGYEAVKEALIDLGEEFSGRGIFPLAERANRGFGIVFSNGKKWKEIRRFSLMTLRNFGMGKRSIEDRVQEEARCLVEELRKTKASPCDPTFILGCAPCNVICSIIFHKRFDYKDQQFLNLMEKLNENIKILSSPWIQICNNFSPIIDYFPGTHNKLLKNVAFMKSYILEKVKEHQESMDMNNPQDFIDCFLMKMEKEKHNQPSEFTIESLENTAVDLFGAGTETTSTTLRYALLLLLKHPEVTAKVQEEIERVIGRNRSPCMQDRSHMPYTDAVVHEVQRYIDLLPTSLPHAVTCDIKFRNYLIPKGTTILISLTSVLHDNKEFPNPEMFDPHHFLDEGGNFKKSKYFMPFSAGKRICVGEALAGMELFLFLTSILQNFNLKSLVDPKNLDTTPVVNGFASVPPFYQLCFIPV

CYP2C19 = assay: In vitro CYP induction; format: in vitro ADME
CYP2C8 [5] = target: T1, CYP2C8 (Homo sapiens, UniProt P10632); assay: In vitro metabolic pathways; format: in vitro ADME
T1 sequence (P10632 whole entry): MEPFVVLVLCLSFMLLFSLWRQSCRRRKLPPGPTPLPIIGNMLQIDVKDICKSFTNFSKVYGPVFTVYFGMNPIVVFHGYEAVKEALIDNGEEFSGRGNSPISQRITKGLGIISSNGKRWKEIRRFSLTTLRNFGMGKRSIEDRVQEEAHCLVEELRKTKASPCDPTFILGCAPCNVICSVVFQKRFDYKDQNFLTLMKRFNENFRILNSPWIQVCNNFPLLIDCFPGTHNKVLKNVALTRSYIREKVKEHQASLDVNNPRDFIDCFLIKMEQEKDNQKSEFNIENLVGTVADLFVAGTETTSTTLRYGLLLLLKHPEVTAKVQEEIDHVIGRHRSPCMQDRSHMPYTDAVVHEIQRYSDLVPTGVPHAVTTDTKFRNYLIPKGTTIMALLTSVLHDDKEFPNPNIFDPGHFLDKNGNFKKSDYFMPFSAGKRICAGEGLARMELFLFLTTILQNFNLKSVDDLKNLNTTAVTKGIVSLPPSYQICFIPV

CYP2C8 [6] = target: T1, CYP2C8; assay: In vitro CYP inhibition; format: in vitro ADME
CYP3A4 [7] = target: CYP3A4 (Homo sapiens, UniProt P08684); assay: In vitro metabolic pathways; format: in vitro ADME
Sequence of CYP3A4 (Homo sapiens, UniProt P08684) (P08684 whole entry): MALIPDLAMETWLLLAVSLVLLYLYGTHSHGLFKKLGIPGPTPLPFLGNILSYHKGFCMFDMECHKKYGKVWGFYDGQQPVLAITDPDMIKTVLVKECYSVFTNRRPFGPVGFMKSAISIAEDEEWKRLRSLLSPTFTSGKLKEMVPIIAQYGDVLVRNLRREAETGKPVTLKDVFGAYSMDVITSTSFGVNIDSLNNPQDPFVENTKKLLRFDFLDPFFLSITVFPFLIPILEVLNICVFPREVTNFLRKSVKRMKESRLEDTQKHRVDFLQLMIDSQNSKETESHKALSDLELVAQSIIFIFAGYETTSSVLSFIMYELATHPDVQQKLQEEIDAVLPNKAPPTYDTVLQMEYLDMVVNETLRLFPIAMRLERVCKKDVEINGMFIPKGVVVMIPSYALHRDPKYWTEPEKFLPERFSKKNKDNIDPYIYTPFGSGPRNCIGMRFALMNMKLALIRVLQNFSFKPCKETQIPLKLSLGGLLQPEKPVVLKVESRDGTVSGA

[8] = Excretion of 14C-cabozantinib radioactivity in healthy subjects; format: in vivo, human; conditions: 72 hour collection
Procedure: Approximately 81% of the total administered radioactivity was recovered within a 48-day collection period following a single 140 mg dose of an investigational ^14C-cabozantinib formulation in healthy subjects. Approximately 54% was recovered in feces and 27% in urine.

[9] = test system: previously treated advanced hepatocellular carcinoma; assay: Phase 3 CELESTIAL trial, efficacy (overall survival, progression-free survival, objective response); format: in vivo, human
Description: Eligible patients were 18 years of age or older with a pathologic diagnosis of hepatocellular carcinoma not amenable to curative treatment and with Child-Pugh Class A liver function. […] Additional inclusion criteria included Eastern Cooperative Oncology Group (ECOG) performance status of 0 or 1, acceptable hematologic parameters, and adequate renal function.
Randomization was stratified by disease etiology (HBV virus [with or without HCV], HCV [without HBV], or other), geographic region (Asia or other), and the presence of extrahepatic spread of disease and/or macrovascular invasion (yes or no).
Treatment interruptions and dose reductions (to 40 mg and then to 20 mg) were utilized to manage adverse events. Patients received study treatment as long as they experienced clinical benefit as judged by the investigator or until they experienced unacceptable toxicity.
The inflation of type 1 error was controlled by Lan-DeMets O'Brien-Fleming alpha-spending function.
Secondary efficacy endpoints were progression-free survival, defined as the time from randomization to the earlier of radiographic progression or death due to any cause, and objective response rate. Tumor assessments were performed using computed tomography or magnetic resonance imaging at baseline and every 8 weeks after randomization until the later of 8 weeks after radiographic progression or treatment discontinuation. Tumor response and progression were assessed by the investigator using Response Evaluation Criteria In Solid Tumors (RECIST) version 1.1. Eisenhauer E A, Therasse P, Bogaerts J, et al. New response evaluation criteria in solid tumours: revised RECIST guideline (version 1.1). […] Safety was continuously evaluated, and the severity of adverse events was assessed by the investigator using the National Cancer Institute Common Terminology Criteria for Adverse Events, version 4. Progression-free survival was tested by stratified log-rank test; significance level 0.04. Overall response rate was tested by 2-sided Fisher's exact test; significance level Of 0.01.
Efficacy was analyzed in all randomized patients by the intent-to-treat principle. Safety was analyzed in all patients who received at least one dose of study treatment. […] Hazard ratios were estimated using Cox regression models. Hypothesis testing for objective response was done with the Cochran-Mantel-Haenszel method. All subgroup analyses of overall survival and progression-free survival were prespecified except for those based on extrahepatic spread of disease or macrovascular invasion as separate factors or sorafenib as the only prior therapy. For subgroup analyses, no adjustments were made for multiplicity, hazard ratios are unstratified, and confidence intervals are considered descriptive.
Patients could have received one other prior systemic therapy. The primary efficacy endpoint was overall survival (OS). Secondary efficacy endpoints were progression-free survival (PFS) and objective response rate (ORR), as assessed by investigator using RECIST 1.1. Tumor assessments were conducted every 8 weeks.

pregnant rats = assay: Embryo-fetal development study in pregnant rats; conditions: daily oral, throughout organogenesis
CYP3A4 [10] = assay: In vitro CYP induction; format: in vitro ADME
Sprague-Dawley rats = assay: 2-year rat carcinogenicity study; format: in vivo
CYP1A2 = CYP1A2 (Homo sapiens, UniProt P05177); assay: In vitro CYP inhibition; format: in vitro ADME
Sequence of CYP1A2 (P05177 whole entry): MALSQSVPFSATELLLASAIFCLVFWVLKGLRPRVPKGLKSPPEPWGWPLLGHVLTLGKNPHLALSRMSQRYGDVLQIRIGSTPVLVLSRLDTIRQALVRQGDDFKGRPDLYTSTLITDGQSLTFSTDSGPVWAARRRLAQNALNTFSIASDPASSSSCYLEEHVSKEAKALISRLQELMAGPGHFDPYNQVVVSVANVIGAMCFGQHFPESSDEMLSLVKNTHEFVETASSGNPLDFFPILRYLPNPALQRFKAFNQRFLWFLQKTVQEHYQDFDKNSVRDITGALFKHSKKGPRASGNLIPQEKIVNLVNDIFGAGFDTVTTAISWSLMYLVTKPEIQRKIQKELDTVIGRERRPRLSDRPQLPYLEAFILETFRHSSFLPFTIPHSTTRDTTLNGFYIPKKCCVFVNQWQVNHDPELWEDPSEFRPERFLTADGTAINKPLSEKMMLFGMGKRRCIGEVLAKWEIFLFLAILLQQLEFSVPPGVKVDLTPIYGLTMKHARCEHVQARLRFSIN

[11] = subgroup whose only prior systemic therapy was sorafenib

## COc1cc2nccc(Oc3ccc(NC(=O)C4(C(=O)Nc5ccc(F)cc5)CC4)cc3)c2cc1OC [cabozantinib]
[1]; ITT
  Patients with any postbaseline reduction in SOD as best response: 47%
  Patients with ≥30% reduction in SOD: 8%
  Patients with ≥50% postbaseline decrease in serum AFP: 23%
[1]; baseline AFP <400 ng/mL
  Patients with ≥30% reduction in postbaseline SOD: 9%
[1]; baseline AFP ≥400 ng/mL
  Patients with ≥30% reduction in postbaseline SOD: 7%
[1]; in vivo
  Median TTP: 5.4 months
CYP2A6
  Effect of inhibition of CYP2A6 on metabolite formation: no effect
FLT-3
  Tyrosine kinase activity of FLT-3: inhibits
CYP3A4 [2]
  Decrease of single-dose plasma exposure (AUC0-inf): 77%
[3]
  Differences in mean plasma exposure among normal liver function, mild and moderate hepatic impairment: no clinically significant differences
[4]
  Median overall survival: 11.5 months
  Median progression-free survival: 5.2 months
CYP2B6
  Induction of CYP2B6: does not induce
CYP2C9
  Effect on CYP2C9 pathway: affected by cabozantinib in vitro
CYP2C19
  Induction of CYP2C19: does not induce
CYP2C8 [5]
  Effect of inhibition of CYP2C8 on metabolite formation: no effect
CYP2C8 [6]
  Inhibition of CYP2C8: inhibitor
CYP3A4 [7]
  CYP3A4 substrate status: substrate
[8]
  Unchanged cabozantinib as share of total radioactivity in feces: 43%
[9]; 6 months
  Kaplan-Meier landmark estimate of % of patients alive (95% CI): 72 (67-76) %
[9]; 12 months
  Kaplan-Meier landmark estimate of % of patients alive (95% CI): 46 (41-50) %
[9]; 18 months
  Kaplan-Meier landmark estimate of % of patients alive (95% CI): 32 (27-37) %
[9]; 24 months
  Kaplan-Meier landmark estimate of % of patients alive (95% CI): 18 (14-22) %
[9]; ITT
  Disease control (partial response or stable disease): 64%
[9]; ITT, second interim analysis, 60 mg once daily
  Median overall survival: 10.2 months
[9]; RECIST 1.1, confirmed responses, ITT
  Objective response rate: 4%
[9]; RECIST 1.1 per investigator, ITT
  Median progression-free survival: 5.2 months
[9]; by investigator
  Best overall response: complete response, n (%): 0
  Best overall response: not evaluable or missing: (15) %
  Best overall response: partial response: (4) %
  Best overall response: progressive disease: (21) %
  Best overall response: stable disease: (60) %
[9]; in vivo
  Improvement in progression-free survival vs placebo: more than 3 months
[9]; [11]
  Median overall survival: 11.3 months
  Median progression-free survival: 5.5 months
Pregnant rats
  Dose with delayed ossification and skeletal variations: 0.01 mg/kg/day
CYP3A4 [10]
  Induction of CYP3A4: does not induce
Sprague-Dawley rats; 1 mg/kg
  Exposure at that dose, times the human exposure by AUC at the recommended 60 mg dose: approximately 5 times
Sprague-Dawley rats; once daily oral, 2-year
  Dose with statistically significant increase in incidence of pheochromocytoma in male rats: 1 mg/kg
CYP1A2
  Inhibition of CYP1A2: does not inhibit

Source: patent US20190262330A1, “Method of Treating Hepatocellular Carcinoma Using N-(4-(6,7-dimethoxyquinolin-4-yloxy)phenyl)-N′-(4-fluorophenyl)cyclopropane-1,1-dicarboxamide, (2S)-hydroxybutanedioate” (Exelixis, Inc., priority 2017, published 2019)
